In assay [1] the target is Rho-associated protein kinase 2 (Homo sapiens, UniProt O75116). Briefly: Inhibition of ROCK-2 (unknown origin).
Assay [2] addresses Rho-associated protein kinase 1 (Homo sapiens, UniProt Q13464). Briefly: Inhibition of ROCK-1 (unknown origin).
Assay [3] is described as follows: Inhibition of PKA (unknown origin). More on the design: species or system Homo sapiens.
Assay [4] in a line: Inhibition of PKA (unknown origin) using cyclic AMP response element binding protein as substrate after 5 mins in presence of [gamma-32P]-ATP. Also on record: species or system Homo sapiens.

Chain of Rho-associated protein kinase 1 (Q13464 whole entry): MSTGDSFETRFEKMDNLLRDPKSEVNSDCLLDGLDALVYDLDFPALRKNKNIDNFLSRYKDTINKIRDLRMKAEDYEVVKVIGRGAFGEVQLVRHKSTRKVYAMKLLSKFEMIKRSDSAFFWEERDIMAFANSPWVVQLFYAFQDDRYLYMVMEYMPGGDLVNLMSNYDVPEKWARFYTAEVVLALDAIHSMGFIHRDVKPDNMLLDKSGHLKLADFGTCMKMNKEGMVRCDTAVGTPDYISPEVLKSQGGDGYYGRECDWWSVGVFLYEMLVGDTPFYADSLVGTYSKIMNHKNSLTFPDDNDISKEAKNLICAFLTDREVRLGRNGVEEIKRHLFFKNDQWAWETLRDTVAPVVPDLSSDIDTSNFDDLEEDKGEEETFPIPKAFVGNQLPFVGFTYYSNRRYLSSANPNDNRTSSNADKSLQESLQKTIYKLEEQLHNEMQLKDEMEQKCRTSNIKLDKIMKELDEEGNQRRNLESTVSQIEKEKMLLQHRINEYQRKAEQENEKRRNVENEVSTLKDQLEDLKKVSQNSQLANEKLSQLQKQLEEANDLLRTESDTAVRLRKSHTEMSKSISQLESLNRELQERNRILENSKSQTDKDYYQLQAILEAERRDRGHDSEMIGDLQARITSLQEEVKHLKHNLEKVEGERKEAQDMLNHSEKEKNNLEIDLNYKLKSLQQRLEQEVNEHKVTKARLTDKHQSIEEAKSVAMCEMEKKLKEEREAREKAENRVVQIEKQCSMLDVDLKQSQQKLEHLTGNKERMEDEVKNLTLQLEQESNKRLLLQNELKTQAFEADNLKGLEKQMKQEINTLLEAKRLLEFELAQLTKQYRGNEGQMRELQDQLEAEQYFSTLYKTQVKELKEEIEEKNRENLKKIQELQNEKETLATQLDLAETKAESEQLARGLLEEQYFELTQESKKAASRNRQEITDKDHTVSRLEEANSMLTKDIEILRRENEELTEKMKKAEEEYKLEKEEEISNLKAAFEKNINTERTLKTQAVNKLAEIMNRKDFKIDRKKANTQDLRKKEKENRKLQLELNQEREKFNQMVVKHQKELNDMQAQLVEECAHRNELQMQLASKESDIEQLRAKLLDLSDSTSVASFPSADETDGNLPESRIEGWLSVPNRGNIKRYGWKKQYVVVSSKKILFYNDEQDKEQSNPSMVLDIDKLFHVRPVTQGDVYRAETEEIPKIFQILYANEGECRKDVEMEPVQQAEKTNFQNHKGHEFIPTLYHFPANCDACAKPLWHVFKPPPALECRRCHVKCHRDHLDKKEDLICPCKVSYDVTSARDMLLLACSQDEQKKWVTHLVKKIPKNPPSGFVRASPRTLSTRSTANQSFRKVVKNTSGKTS
Chain of Rho-associated protein kinase 2 (O75116 whole entry): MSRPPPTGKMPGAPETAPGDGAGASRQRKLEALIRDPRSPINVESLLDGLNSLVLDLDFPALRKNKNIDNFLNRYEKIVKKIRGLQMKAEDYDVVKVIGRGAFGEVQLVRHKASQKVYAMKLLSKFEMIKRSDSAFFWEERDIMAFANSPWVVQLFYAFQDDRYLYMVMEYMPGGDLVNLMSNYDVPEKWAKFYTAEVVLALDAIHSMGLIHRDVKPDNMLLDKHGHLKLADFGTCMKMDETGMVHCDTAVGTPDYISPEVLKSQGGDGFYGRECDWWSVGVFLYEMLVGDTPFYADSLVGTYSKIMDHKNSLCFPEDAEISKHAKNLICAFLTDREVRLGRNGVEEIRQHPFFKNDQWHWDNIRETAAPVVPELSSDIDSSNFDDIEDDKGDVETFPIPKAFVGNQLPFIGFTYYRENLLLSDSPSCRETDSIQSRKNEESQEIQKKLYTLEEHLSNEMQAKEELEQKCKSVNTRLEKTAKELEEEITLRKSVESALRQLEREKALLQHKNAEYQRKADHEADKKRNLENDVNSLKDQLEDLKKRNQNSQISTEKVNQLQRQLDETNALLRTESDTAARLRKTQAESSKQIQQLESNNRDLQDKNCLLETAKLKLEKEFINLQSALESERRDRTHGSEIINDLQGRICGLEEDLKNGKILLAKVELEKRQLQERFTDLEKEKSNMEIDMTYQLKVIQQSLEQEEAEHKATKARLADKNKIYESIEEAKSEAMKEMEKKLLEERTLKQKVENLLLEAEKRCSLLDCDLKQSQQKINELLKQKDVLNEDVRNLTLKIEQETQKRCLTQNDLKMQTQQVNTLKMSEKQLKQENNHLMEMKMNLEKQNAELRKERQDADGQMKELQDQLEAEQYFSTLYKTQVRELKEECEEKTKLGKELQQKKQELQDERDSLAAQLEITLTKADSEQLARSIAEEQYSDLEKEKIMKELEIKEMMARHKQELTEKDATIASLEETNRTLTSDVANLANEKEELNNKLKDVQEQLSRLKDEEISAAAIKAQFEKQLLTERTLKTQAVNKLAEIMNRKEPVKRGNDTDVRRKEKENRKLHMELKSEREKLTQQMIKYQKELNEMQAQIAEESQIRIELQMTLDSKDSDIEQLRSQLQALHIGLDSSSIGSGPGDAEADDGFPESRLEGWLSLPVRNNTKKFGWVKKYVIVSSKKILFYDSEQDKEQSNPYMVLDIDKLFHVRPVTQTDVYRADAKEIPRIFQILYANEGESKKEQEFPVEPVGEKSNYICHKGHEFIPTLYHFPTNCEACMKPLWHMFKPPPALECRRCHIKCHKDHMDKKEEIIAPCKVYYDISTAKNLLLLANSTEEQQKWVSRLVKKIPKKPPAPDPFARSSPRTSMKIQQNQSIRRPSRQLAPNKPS

In the case of `C[C@@H](N)[C@H]1CC[C@H](C(=O)Nc2ccnc3[nH]ccc23)CC1`, the IC50 was 10 nM in assay [1], 30 nM in assay [2] and 290 nM in assay [3].

In the case of `Cc1cncc2cccc(S(=O)(=O)N3CCCNC[C@@H]3C)c12`, the half-inhibitory concentration (IC50) in assay [4] is 3030 nM.

For orientation: IC50 means the concentration that inhibits the measured activity by half.

Source of the values: ChEMBL document CHEMBL3792387, “A review on ROCK-II inhibitors: From molecular modelling to synthesis” (Bioorg Med Chem Lett, 2016).
